According to patent publication US20160228403A1, “AGENT FOR PREVENTING OR AMELIORATING RENAL DYSFUNCTION” (TOHOKU UNIVERSITY, priority 2013, published 2016):

Assays:
αSMA = experiment: DAB staining of renal failure marker protein αSMA in renal tissue sections; format: in vivo, mice; details: lubiprostone 50 or 500 μg/kg vs corn oil administration group; FIG. 4 lower
Protocol: (§1) [3] The adenine-diet fed group was fed by returning the feed to the ordinary feed after 6 weeks of adenine-diet feeding (at 13 weeks of age) and divided into 3 administration groups (“corn-oil administration group” [vehicle], “lubiprostone 50 administration group” [Lubi50], and “lubiprostone 500 administration group” [Lubi500]; corn oil, 50 μg/kg (mouse body weight) of lubiprostone dissolved in corn oil [Amitiza capsule] [from Abbot Japan Co., Ltd.], and 500 μg/kg (mouse body weight) of lubiprostone dissolved in corn oil [from Abbot Japan Co., Ltd.] were forcibly orally administered using a sound to the “corn-oil administration group”, “lubiprostone 50 administration group”, and “lubiprostone 500 administration group”, respectively once daily for 12 days.
(§2) Renal tissue sections were prepared to perform detailed renal tissue analysis. The renal tissue of the chronic renal failure model mice to which lubiprostone was administered prepared by the method described in Example 1 was fixed in 10% neutral-buffer formalin and embedded in paraffin. The paraffin-embedded renal tissue was sliced and analyzed using 3 histological staining methods (periodic acid-Schiff stain [PAS], Masson's trichrome stain [MTS], and picrosirius red stain) (FIG. 3).
(§3) F4/80 and αSMA are known as renal failure markers. […]

[1] = test system: chronic renal failure model mice; experiment: BUN and hemoglobin level in blood of chronic renal failure model mice (i-STAT); format: in vivo
Protocol: The present invention will be more specifically described below with reference to Examples. However, these Examples are not intended to limit the technical scope of the present invention. In Examples, to confirm that the administration of lubiprostone (trade name: Amitiza) could ameliorate renal function, chronic renal failure model mice were prepared by causing mice to eat adenine and analysis was performed using the chronic renal failure model mice. The chronic renal failure model mice are mice in which nephropathy occurs by the crystallization of the eaten adenine in the uriniferous tubule in the form of insoluble 2,8-dihydroxyadenine (Cozzolino, M. et al. Kidney Int. 64, 441-450 (2003) and Tamagaki, K. et al. Nephrol. Dial. Transplant 21, 651-659 (2006)). All experimental animals were operated after approval by the Ethics Committee of Tohoku University School of Medicine.
(§4) Chronic renal failure model mice to which lubiprostone was administered were prepared according to a method consisting of the following processes to [4]. The body weight of mice was measured on a weekly basis, and blood pressure was measured by a tailcuff method.
(§5) [1] Male C57BL/6 mice (purchased from Clea Japan, Inc.) were fed on an ordinary feed (CE-2 from Clea Japan, Inc.) until 6 weeks of age.
(§6) [2] At 7 weeks of age, the mice were divided into an ordinary fed group fed on the ordinary feed (control) and an adenine-diet fed group fed on an ordinary feed containing 0.2% adenine (from Wako) (adenine-diet).
[3] […]
Blood was collected according to an established method from the chronic renal failure model mice to which lubiprostone was administered prepared by the method described in Example 1, and the level of BUN in the blood of the mice was measured using i-STAT (from Fuso) (FIG. 2).

[2] = test system: Tnfa, Il6, Pai-1, and Ccl2; experiment: Quantitative PCR of nephritis-related marker mRNA in whole kidney; format: in vivo, mice
Protocol: [3] […]
(§7) In addition, 8 renal failure markers other than F4/80 and αSMA (4 nephritis-related markers [Tnfa, Il6, Pai-1, and Ccl2] and 4 fibrosis-related markers [Col1a1, Col3a1, Tgfb1, and Acta2]) were also analyzed. […] The expression level of mRNA of genes of the 8 renal failure markers (the 4 nephritis-related markers and the 4 fibrosis-related markers) was detected by performing quantitative PCR using Fast start universal probe master (from Roche Co., Ltd.) under the conditions described in the following 1) to 2). […]
(§8) The number of PCR cycles at which each PCR product reaches a certain amount (threshold cycle: Ct value) was measured using Baseline software (from Applied Biosystems Co., Ltd.); the relative Ct value of the cDNA amplification product of the gene of each of the 8 renal failure markers (the 4 nephritis-related markers and the 4 fibrosis-related markers) based on the Ct value of the cDNA amplification product of the GAPDH gene was determined by a comparative Ct method (delta-delta Ct method); and the relative amount of cDNA of the gene of each of the 8 renal failure markers (the 4 nephritis-related markers and the 4 fibrosis-related markers), i.e., the relative amount of mRNA of the gene of each of the 8 renal failure markers (the 4 nephritis-related markers and the 4 fibrosis-related markers), was calculated from the relative Ct value (see the ordinate of FIG. 5).

[3] = test system: chronic renal failure model mice; experiment: Histological analysis of renal tissue (PAS, MTS, picrosirius red) of chronic renal failure model mice; format: in vivo
Protocol: as §4, §5, §6, §1
[4] After 24 hours, the mice were subjected to cervical dislocation.
as §2

[4] = Body weight of chronic renal failure model mice given lubiprostone; format: in vivo; details: adenine-diet mice; lubiprostone 50 or 500 μg/kg orally once daily for 12 days; FIG. 1
Protocol: as §4, §5, §6
[3] […]
In the 4 groups (the ordinary fed group, the corn-oil administration group, the lubiprostone 50 administration group, and the lubiprostone 500 administration group), the body weight of mice at 7 weeks of age (immediately after adenine-diet feeding), at 9 weeks of age (at 2 weeks of age after adenine-diet feeding), at 11 weeks of age (at 4 weeks of age after adenine-diet feeding), at 13 weeks of age (immediately after lubiprostone administration), and at cervical dislocation (at 13/7 [≈1.86] weeks after lubiprostone administration) was measured; the results are shown in FIG. 1.

F4/80 = experiment: DAB staining of renal failure marker protein F4/80 in renal tissue sections; format: in vivo, mice; details: lubiprostone 50 or 500 μg/kg vs corn oil administration group; FIG. 4 upper
Protocol: as §1, §2, §3

[5] = test system: Col1a1, Col3a1, Tgfb1, and Acta2; experiment: Quantitative PCR of fibrosis-related marker mRNA in whole kidney; format: in vivo, mice
Protocol: [3] […]
as §7, §8

[6] = lubiprostone 500 administration group (500 μg/kg), Dunnett test, FIG. 5

## CCCCC(F)(F)C(=O)CC[C@H]1[C@H](O)CC(=O)[C@@H]1CCCCCCC(=O)O [lubiprostone, (−)-7-[(2R,4aR,5R,7aR)-2-(1,1-difluoropentyl)-2-hydroxy-6-oxooctahydrocyclopenta[b]pyran-5-yl]heptanoic acid]
αSMA
  increase in the expression of renal failure marker αSMA protein: suppressed
[1]; chronic renal failure model mice given lubiprostone
  level of hemoglobin (Hb) in the blood: did not change
[1]; lubiprostone 50 or 500 μg/kg orally once daily for 12 days vs corn oil administration group, FIG. 2
  increase in the blood BUN level: suppressed in a manner dependent on the dose of lubiprostone
[1]; lubiprostone 500 administration group (500 μg/kg), Dunnett test p<0.05, FIG. 2
  blood BUN level, statistical difference to the corn oil administration group: a significant difference was noted
[2]; [6]
  mRNA of 3 nephritis-related markers (excluding Il6), statistical difference to the corn oil administration group: a significant difference was noted
[2]; relative to GAPDH, lubiprostone 50 or 500 μg/kg vs corn oil administration group, FIG. 5 panel A
  expression level of mRNA of the 4 nephritis-related markers (Tnfa, Il6, Pai-1, Ccl2): decreased the expression level of mRNA
[3]; lubiprostone 50 or 500 μg/kg vs corn oil administration group, FIG. 3 panel A bottom
  fibrosis of the kidney, collagen fiber staining by picrosirius red stain, renal tissue sections: the fibrosis of the kidney was suppressed
[3]; lubiprostone 50 or 500 μg/kg vs corn oil administration group, FIG. 3 panel A middle
  fibrosis of the kidney, collagen fiber staining by MTS method, renal tissue sections: the fibrosis of the kidney was suppressed
[3]; lubiprostone 50 or 500 μg/kg vs corn oil administration group, FIG. 3 panel A top
  uriniferous tubule, PAS stain of renal tissue sections: recovery of the uriniferous tubule was noted
[3]; lubiprostone 50 or 500 μg/kg vs corn oil administration group, FIG. 3 panel B top
  fibrosis of the kidney, collagen fiber staining by MTS method, whole kidney: the fibrosis of the kidney was suppressed
[3]; lubiprostone 50 or 500 μg/kg vs corn oil administration group, FIG. 3 panels B bottom and C
  decrease of the renal uriniferous tubule (tubules area, MTS method, whole kidney): suppressed in a manner dependent on the dose of lubiprostone
[3]; lubiprostone 500 administration group (500 μg/kg), Dunnett test p<0.01, FIG. 3 panel C
  proportion of the renal uriniferous tubule in the whole kidney, statistical difference to the corn oil administration group: a significant difference was noted
[4]
  recovery of body weight after return to ordinary feed: did not affect the recovery of body weight
F4/80
  increase in the expression of renal failure marker F4/80 protein: suppressed
[5]; [6]
  mRNA of the 4 fibrosis-related markers, statistical difference to the corn oil administration group: a significant difference was noted
[5]; relative to GAPDH, lubiprostone 50 or 500 μg/kg vs corn oil administration group, FIG. 5 panel B
  expression level of mRNA of the 4 fibrosis-related markers (Col1a1, Col3a1, Tgfb1, Acta2): decreased the expression level of mRNA
